Several values for one entry are separate records, joined by “and”; a condition that tells them apart may be missing. Equal entries are not always repeated. Activity calls are given as the source filed them. The rule behind the calls is not given here.
How the values were obtained:
[1] = Cmax in Sprague-Dawley rat at 100 mg/kg, po measured upto 480 mins by LC-MS/MS analysis; assay type: ADME, organism-based; set-up: dose 100 mg/kg, route oral; conditions: in vivo
[2] = Protective index, ratio of TD50 for neurotoxicity against ip dosed Kunming mouse assessed as time remained in rod measured at 0.5 hrs by rotarod test to ED50 for anticonvulsant activity in ip dosed Kunming mouse assessed as reduction in Sc3-MP-induced seizure administered 0.5 hrs before Sc3-MP stimulation; assay type: toxicity, organism-based; conditions: in vivo, read-out: PI
[3] = Oral bioavailability in Sprague-Dawley rat at 50 mg/kg measured upto 480 mins by LC-MS/MS analysis; assay type: ADME, organism-based; conditions: in vivo
[4] = Protective index, ratio of TD50 for neurotoxicity against ip dosed Kunming mouse assessed as time remained in rod measured at 0.5 hrs by rotarod test to ED50 for […] activity in ip dosed Kunming mouse assessed as reduction in formalin-induced paw licking administered 0.5 hrs before formalin stimulation; assay type: toxicity, organism-based; conditions: in vivo, read-out: PI
Mus musculus [5] = experiment: Anticonvulsant activity in Kunming mouse assessed as reduction in ScPTZ-induced clonic seizure at 300 mg/kg, ip administered 0.5 hrs before ScPTZ stimulation relative to control; assay type: functional; set-up: scale not given: the % may be the effect or the level left
[6] = Protective index, ratio of TD50 for neurotoxicity against ip dosed Kunming mouse assessed as time remained in rod measured at 0.5 hrs by rotarod test to ED50 for anticonvulsant activity in ip dosed Kunming mouse assessed as MES-induced hind limb extension administered 0.5 hrs; assay type: toxicity, organism-based; conditions: in vivo, read-out: PI
[7] = Cmax in Sprague-Dawley rat at 50 mg/kg, po measured upto 480 mins by LC-MS/MS analysis; assay type: ADME, organism-based; set-up: dose 50 mg/kg, route oral; conditions: in vivo
[8] = Oral bioavailability in Sprague-Dawley rat at 20 mg/kg measured upto 480 mins by LC-MS/MS analysis; assay type: ADME, organism-based; conditions: in vivo
[9] = Tmax in Sprague-Dawley rat at 100 mg/kg, po measured upto 480 mins by LC-MS/MS analysis; assay type: ADME, organism-based; conditions: in vivo
[10] = Volume of distribution at steady state in Sprague-Dawley rat at 20 mg/kg, iv measured upto 480 mins by LC-MS/MS analysis; assay type: ADME, organism-based; conditions: in vivo, read-out: Vdss
Homo sapiens [11] = species on record: Homo sapiens; experiment: Inhibition of human LDH1 at 0.5 mM using sodium pyruvate as substrate by UV-VIS spectrophotometry method relative to control
[12] = Clearance in Sprague-Dawley rat at 20 mg/kg, iv measured upto 480 mins by LC-MS/MS analysis; assay type: ADME, organism-based; conditions: in vivo
[13] = Volume of distribution at steady state in Sprague-Dawley rat at 50 mg/kg, po measured upto 480 mins by LC-MS/MS analysis; assay type: ADME, organism-based; conditions: in vivo, 8 h
[14] = Protective index, ratio of TD50 for neurotoxicity against ip dosed Kunming mouse assessed as time remained in rod measured at 0.5 hrs by rotarod test to ED50 for anticonvulsant activity in ip dosed Kunming mouse assessed as reduction in ScPTZ-induced seizure administered 0.5 hrs before ScPTZ stimulation; assay type: toxicity, organism-based; conditions: in vivo, read-out: PI
[15] = Cmax in Sprague-Dawley rat at 20 mg/kg, iv measured upto 480 mins by LC-MS/MS analysis; assay type: ADME, organism-based; set-up: dose 20 mg/kg, route intravenous; conditions: in vivo
[16] = Clearance in Sprague-Dawley rat at 50 mg/kg, po measured upto 480 mins by LC-MS/MS analysis; assay type: ADME, organism-based; conditions: in vivo
Mus musculus [17] = experiment: Anticonvulsant activity in Kunming mouse assessed as reduction in ScPTZ-induced seizure at 100 mg/kg, ip administered 0.25 and 1 hrs before ScPTZ stimulation relative to control; assay type: functional; set-up: scale not given: the % may be the effect or the level left
Mus musculus [18] = experiment: Anticonvulsant activity in Kunming mouse assessed as reduction in ScPTZ-induced clonic seizure at 100 mg/kg, ip administered 0.5 hrs before ScPTZ stimulation relative to control; assay type: functional; set-up: scale not given: the % may be the effect or the level left
Mus musculus [19] = experiment: […] activity in ip dosed Kunming mouse assessed as reduction in formalin-induced paw licking administered 0.5 hrs before formalin stimulation; assay type: functional
Mus musculus [20] = experiment: Anticonvulsant activity in Kunming mouse assessed as reduction in ScPTZ-induced seizure at 300 mg/kg, ip administered 0.25 to 2 hrs before ScPTZ stimulation relative to control; assay type: functional; set-up: scale not given: the % may be the effect or the level left
[21] = AUC in Sprague-Dawley rat at 50 mg/kg, po measured upto 480 mins by LC-MS/MS analysis; assay type: ADME, organism-based; set-up: time < 8 hr, dose 50 mg/kg, route oral; conditions: in vivo
Mus musculus [22] = experiment: Anticonvulsant activity in Kunming mouse assessed as MES-induced hind limb extension at 50 mg/kg, ip administered 0.5 and 2 hrs before MES stimulation relative to control; assay type: functional
Mus musculus [23] = experiment: Anticonvulsant activity in Kunming mouse assessed as reduction in Sc3-MP-induced clonic seizure rate at 300 mg/kg, ip administered 0.5 hrs before Sc3-MP stimulation relative to control; assay type: functional; set-up: scale not given: the % may be the effect or the level left
[24] = Volume of distribution at steady state in Sprague-Dawley rat at 20 mg/kg, po measured upto 480 mins by LC-MS/MS analysis; assay type: ADME, organism-based; conditions: in vivo, 8 h
[25] = Half life in Sprague-Dawley rat at 100 mg/kg, po measured upto 480 mins by LC-MS/MS analysis; assay type: ADME, organism-based; conditions: in vivo
[26] = AUC in Sprague-Dawley rat at 20 mg/kg, po measured upto 480 mins by LC-MS/MS analysis; assay type: ADME, organism-based; set-up: time < 8 hr, dose 20 mg/kg, route oral; conditions: in vivo
Mus musculus [27] = experiment: Anticonvulsant activity in ip dosed Kunming mouse assessed as reduction in ScPTZ-induced seizure administered 0.5 hrs before ScPTZ stimulation; assay type: functional
[28] = Tmax in Sprague-Dawley rat at 50 mg/kg, po measured upto 480 mins by LC-MS/MS analysis; assay type: ADME, organism-based; conditions: in vivo
[29] = Tmax in Sprague-Dawley rat at 20 mg/kg, po measured upto 480 mins by LC-MS/MS analysis; assay type: ADME, organism-based; conditions: in vivo
[30] = AUC in Sprague-Dawley rat at 20 mg/kg, iv measured upto 480 mins by LC-MS/MS analysis; assay type: ADME, organism-based; set-up: time < 8 hr, dose 20 mg/kg, route intravenous; conditions: in vivo
Mus musculus [31] = experiment: Anticonvulsant activity in Kunming mouse assessed as MES-induced hind limb extension at 100 mg/kg, ip administered 0. 5 to 2 hrs before MES stimulation; assay type: functional, organism-based
Homo sapiens [32] = species on record: Homo sapiens; experiment: Inhibition of human LDH1 at 0.5 mM using sodium pyruvate as substrate measured for 60 sec for every 5 mins by LC/MS-MS analysis
Mus musculus [33] = experiment: Anticonvulsant activity in Kunming mouse assessed as MES-induced hind limb extension at 50 mg/kg, ip administered 0.5 to 4 hrs before MES stimulation relative to control; assay type: functional
Mus musculus [34] = experiment: Anticonvulsant activity in Kunming mouse assessed as reduction in Sc3-MP-induced seizure ip dosed measured at 0.5 hrs before Sc3-MP stimulation; assay type: functional
[35] = Half life in Sprague-Dawley rat at 20 mg/kg, iv measured upto 480 mins by LC-MS/MS analysis; assay type: ADME, organism-based; conditions: in vivo
Mus musculus [36] = experiment: Anticonvulsant activity in Kunming mouse assessed as reduction in Sc3-MP-induced seizure at 300 mg/kg, ip administered 0.5 hrs before Sc3-MP stimulation relative to control; assay type: functional; set-up: scale not given: the % may be the effect or the level left
[37] = Half life in Sprague-Dawley rat at 20 mg/kg, po measured upto 480 mins by LC-MS/MS analysis; assay type: ADME, organism-based; conditions: in vivo
Mus musculus [38] = experiment: Anticonvulsant activity in Kunming mouse assessed as reduction in ScPTZ-induced tonic seizure rate at 300 mg/kg, ip administered 0.5 hrs before ScPTZ stimulation relative to control; assay type: functional; set-up: scale not given: the % may be the effect or the level left
Mus musculus [39] = experiment: Anticonvulsant activity in ip dosed Kunming mouse assessed as MES-induced hind limb extension administered 0.5 hrs before MES stimulation; assay type: functional

## COc1cc(OC)c(OC)cc1/C=C/COC(=O)/C=C/c1c(OC)cc(OC)c(OC)c1OC
[1]
  Cmax: 3980 ng/mL
[2]
  selectivity ratio at 0.5 h: 4.6
[3]
  bioavailability: 34.8%
[4]
  selectivity ratio at 0.5 h: 21.6
Mus musculus [5]
  Activity: 100%
[6]
  selectivity ratio at 0.5 h: 27.7
[7]
  Cmax: 2040 ng/mL
[8]
  bioavailability: 43.4%
[9]
  Tmax: 38.8 min
[10]
  Vd: 2.14 L/kg
Homo sapiens [11]
  inhibition: 21%
[12]
  clearance: 140 mL/min/kg
[13]
  Vdss: 10.17 L/kg
[14]
  selectivity ratio at 0.5 h: 6.1
[15]
  Cmax: 6480 ng/mL
[16]
  CL/F: 450 mL/min/kg
Mus musculus [17]
  Activity: 75%
Mus musculus [18]
  Activity: 100%
Mus musculus [19]
  ED50: 46.3 mg/kg and 97.6 µmol/kg
Mus musculus [20]
  Activity: 50%
[21]
  AUC at 8 h: 2610 ng·h/mL
Mus musculus [22]
  Activity: 75%
Mus musculus [23]
  Activity: 100%
[24]
  Vdss: 9.86 L/kg
[25]
  half-life: 58.5 min
[26]
  AUC at 8 h: 1300 ng·h/mL
Mus musculus [27]
  ED50: 154 mg/kg and 326 µmol/kg
[28]
  Tmax: 38.7 min
[29]
  Tmax: 37.1 min
[30]
  AUC at 8 h: 3000 ng·h/mL
Mus musculus [31]
  Activity: Active
Homo sapiens [32]
  inhibition: 21%
Mus musculus [33]
  Activity: 50%
Mus musculus [34]
  ED50: 203 mg/kg and 428 µmol/kg
[35]
  half-life: 22.8 min
Mus musculus [36]
  Activity: 50%
[37]
  half-life: 57.9 min
Mus musculus [38]
  Activity: 25%
Mus musculus [39]
  ED50: 71.4 µmol/kg and 33.9 mg/kg

## COc1cc(OC)c(OC)cc1/C=C/COC(=O)/C=C/c1cc(OC)c(OC)c(OC)c1OC
[1]
  Cmax: 3770 ng/mL
[2]
  selectivity ratio at 0.5 h: > 5.3
[3]
  bioavailability: 31.4%
[4]
  selectivity ratio at 0.5 h: 23.7
Mus musculus [5]
  Activity: 100%
[6]
  selectivity ratio at 0.5 h: > 32.4
[7]
  Cmax: 1890 ng/mL
[8]
  bioavailability: 41.3%
[9]
  Tmax: 36.2 min
[10]
  Vd: 1.98 L/kg
Homo sapiens [11]
  inhibition: 18%
[12]
  clearance: 160 mL/min/kg
[13]
  Vdss: 9.26 L/kg
[14]
  selectivity ratio at 0.5 h: > 6.4
[15]
  Cmax: 6220 ng/mL
[16]
  CL/F: 480 mL/min/kg
Mus musculus [17]
  Activity: 75%
Mus musculus [18]
  Activity: 100%
Mus musculus [19]
  ED50: 42.2 mg/kg and 89 µmol/kg
Mus musculus [20]
  Activity: 50%
[21]
  AUC at 8 h: 2310 ng·h/mL
Mus musculus [22]
  Activity: 75%
Mus musculus [23]
  Activity: 100%
[24]
  Vdss: 8.94 L/kg
[25]
  half-life: 57 min
[26]
  AUC at 8 h: 1210 ng·h/mL
Mus musculus [27]
  ED50: 155 mg/kg and 327 µmol/kg
[28]
  Tmax: 35.6 min
[29]
  Tmax: 35.2 min
[30]
  AUC at 8 h: 2940 ng·h/mL
Mus musculus [31]
  Activity: Active
Homo sapiens [32]
  inhibition: 18%
Mus musculus [33]
  Activity: 50%
Mus musculus [34]
  ED50: > 200 mg/kg and > 422 µmol/kg
[35]
  half-life: 19.7 min
Mus musculus [36]
  Activity: 50%
[37]
  half-life: 55.8 min
Mus musculus [38]
  Activity: 0%
Mus musculus [39]
  ED50: 65.1 µmol/kg and 30.9 mg/kg

Reference: ChEMBL document CHEMBL4311969, “Polygala tenuifolia-Acori tatarinowii herbal pair as an inspiration for substituted cinnamic α-asaronol esters: Design, synthesis, anticonvulsant activity, and inhibition of lactate dehydrogenase study” (Eur J Med Chem, 2019)
